ChEMBL document CHEMBL1201862, “PubChem BioAssay data set” (2004)
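Growth conditions: 96-well plates. Treatment: test compound, 48 hours, 5 concentrations. Analysis: linear interpolation between bracketing concentrations; unreached endpoints set to highest concentration. GI50 is the concentration that inhibits growth by half.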 Calls of active or inactive are those of the source. No stated cut-off is given here; in the data, active = GI50 up to about 1.1 µM and inactive = higher.

How the values were obtained:
Experiment in all cases: NCI tumour cell line growth inhibition, 48 h
RXF 631 = system: RXF 631
XF498 = system: XF498
DMS-273 = system: DMS-273
DMS-114 = system: DMS-114
M19-MEL = system: M19-MEL
DLD-1 = system: DLD-1

Measured: GI50

COC(=O)c1cc(-c2ccc(OC)c(OC)c2)oc1-c1ccc(OC)c(OC)c1
inactive: RXF 631 30.5 µM | XF498 37.3 µM | DMS-273 67.1 µM | DMS-114 31.9 µM | M19-MEL 41.3 µM | DLD-1 30.1 µM

COc1ccc([C@@H]2C[C@@H]3C(=O)OC(=O)[C@@H]3c3c2c2ccccc2n3C)cc1
inactive: RXF 631 > 100 µM | XF498 > 100 µM | DMS-273 > 100 µM | DMS-114 > 100 µM | M19-MEL > 100 µM | DLD-1 > 100 µM

CC(C)c1cccc(=O)c(O)c1 [HINOKITIOL]
inactive: RXF 631 30.5 µM | XF498 4.24 µM | DMS-273 3.83 µM | DMS-114 3.72 µM | M19-MEL 13.3 µM | DLD-1 5.31 µM
